{"source": "paper PMC10098121", "about": "“Amphipathic barbiturates as marine product mimics with cytolytic and immunogenic effects on head and neck squamous cell carcinoma cell lines” (Frontiers in Pharmacology, 2023)", "type_in_all_cases": "cell-based, human", "key": {"[1]": {"system": "UT-SCC-24A cells", "assay": "MTS viability assay with bafilomycin A1 and z-VAD-FMK", "conditions": "24 h, cisplatin 50 µM, MPM-2:0/MPM-6:0 10 µM, MPM-3:2/MPM-4:2 20 µM", "protocol": "HSC-3 and UT-SCC-24A cells were seeded, 10,000 cells/well, in flat bottom 96-well plates and left to adhere overnight. The supernatants were then removed and replaced by 50 µl of complete DMEM/F-12 ± 100 nM BafA1 (#196000, Sigma-Aldrich, St. Louis, MO, United States) or 50 µM z-VAD-FMK (#219007, Sigma-Aldrich). The plate was then incubated for 1 hour before another 50 µl of complete DMEM/F-12 ± 100 nM BafA1 or 50 µM z-VAD-FMK as well as the MPMs or cisplatin was added. The final concentration of cisplatin was 50 µM and for the MPMs it was 5 or 10 µM for MPM-2:0 and MPM-6:0, and 10 or 20 µM for MPM-3:2 and MPM-4:2, for HSC-3 and UT-SCC-24A cells, respectively. 100 μl of media ± 1% Triton X-100 served as […]. The cells were incubated for 24 h before 20 µl of MTS reagent (CellTiter 96® Aqueous One Solution, Promega, Madison, WI, United States) was added to each well. The plate was then incubated for one more hour before absorbance was measured at 490 nm on a VersaMaxTM Microplate reader (Molecular Devices, San Jose, CA, United States). Viability was calculated using the following formula: %=Abs treated sample−Abs positive control/Abs negative control−Abs positive control x 100\nAt least three independent experiments were performed, with triplicate wells in each experiment."}, "[2]": {"system": "phosphorylated eIF2α in HSC-3 cells", "assay": "Western blot for phosphorylated eIF2α", "conditions": "HSC-3, 24 h; cisplatin 50 µM, MPMs 5-20 µM", "protocol": "(§1) HSC-3 and UT-SCC-24A cells were seeded, 300,000 cells/well, in 6-well plates and left to adhere overnight. The media was then removed and replaced by 2 ml complete DMEM/F-12 containing 5, 7.5, 10 or 20 µM of MPM-2:0, MPM-6:0, MPM-3:2 or MPM-4:2, or 50 µM cisplatin. Some cells were left untreated. The cells were then incubated for 24 h. Next, the cell supernatants were collected before the cells were trypsinized and spun down with the supernatants. The cells were then washed twice in ice-cold PBS before being resuspended in 100 µl RIPA buffer (25 mM Tris-HCl (pH 7,6), 150 mM NaCl, 0.1% SDS, 0.5% sodium deoxycholate, 1% Triton X-100) containing 1% protease inhibitor (SIGMAFASTTM, #S8830, Sigma-Aldrich) and incubated on a shaker for 30 min. Next, the samples were sonicated and then kept at −70°C before being used. The samples were kept on ice or at 4°C during the whole procedure. The samples were thawed on ice and the protein concentration was measured using the DC Protein Assay kit (#5000111, Bio-Rad Laboratories, Hercules, CA, United States). 8 μg of protein was taken from each sample and mixed with DTT (final concentration 50 mM) and 20% 5 × sample buffer (250 mM Tris-HCl pH 6.8, 10% SDS, 20% Glycerol, 0.01% Bromphenol Blue). […]"}, "[3]": {"system": "phosphorylated eIF2α in UT-SCC-24A cells", "assay": "Western blot for phosphorylated eIF2α", "conditions": "24 h, cisplatin 50 µM, MPMs 5-20 µM", "protocol": "as §1"}, "[4]": {"system": "cell surface calreticulin on HSC-3 cells", "assay": "Flow cytometric detection of cell surface calreticulin", "conditions": "HSC-3, 24 h; cisplatin 50 µM, MPMs 5-20 µM; vs untreated", "protocol": "This procedure was based on a published method ([Liu et al., 2020]), but was performed with some modifications. Briefly, HSC-3 and UT-SCC-24A cells were seeded, 300,000 cells/well, in 6-well plates and left to adhere overnight. The media was then removed and replaced by 2 ml complete DMEM/F-12 containing 5, 7.5, 10 or 20 µM of MPM-2:0, MPM-6:0, MPM-3:2 or MPM-4:2, or 50 µM cisplatin. Some cells were left untreated. The cells were then incubated for 24 h. Next, the cell supernatants were collected before the cells were trypsinized and spun down with the supernatants. The cells were then washed in PBS before being incubated with the viability dye Zombie Violet (#423114, BioLegend, San Diego, CA, United States) diluted 1:500 in PBS for 20 min. Next, the cells were incubated with an anti-calreticulin antibody (#ab2907, Abcam) diluted 1:100 in FACS buffer (2%BSA in PBS) for 30 min. The cells were then fixed in 4% formaldehyde for 15 min and washed twice in FACS buffer before being incubated with the secondary antibody (#A11034, Thermo Fisher Scientific) diluted 1:250 in FACS buffer for 30 min. The cells were washed in FACS buffer and analyzed on a LSR Fortessa (BD Biosciences) within 1 week. Analyses were performed in FlowJo™ v.10 (https://www.flowjo.com/)."}}, "data": [{"smiles": "N.N.[Cl][Pt][Cl]", "note": "[Cisplatin, cisplatin, reference compound]", "values": [{"measurement": "viability in the presence of BafA1 (100 nM) or z-VAD-FMK (50 µM) (in words)", "setting": "[1]", "result": "z-VAD-FMK seemed to have some protective effects against cisplatin for both cell lines, while BafA1 had the opposite effect"}, {"measurement": "phosphorylation of eIF2α (in words)", "setting": "[2]", "result": "induced high levels of phosphorylated eIF2α"}, {"measurement": "phosphorylation of eIF2α (in words)", "setting": "[3]", "result": "induced high levels of phosphorylated eIF2α"}, {"measurement": "cell surface expression of calreticulin (in words)", "setting": "[4]", "result": "did not induce any cell surface expression of calreticulin"}]}]}
